Assay results taken from patent US11603349B2, “Anti-fibrotic compounds” (Certa Therapeutics Pty Ltd, priority 2017, dated 2023).

Tests used:
[1] = test system: TGF-β induced [14C]-proline incorporation in rat mesangial cells; test: [14C]-proline incorporation assay (collagen biosynthesis); format: cell-based; settings: Rattus norvegicus, Mesangial cell, 44 h, inhibition of TGF-β1 (1 ng/ml) induced [14C]-proline incorporation, IRMC cells
[2] = MTS tetrazolium reduction cell viability assay; settings: rat, rat mesangial cells (1097/IRMC cells), TGF-β1 stimulated, CC50 (μM), vs 1% DMSO vehicle

Compound	IC50 [1]	CC50 at 48 h [2]
C#CCOc1ccc(/C=C/C(=O)Nc2ccccc2-c2nnc(C)o2)cc1OC [Example 29, (E)-3-(3-methoxy-4-(prop-2-yn-1-yloxy)phenyl)-N-(2-(5-methyl-1,3,4-oxadiazol-2-yl)phenyl)-acrylamide]	25.6 µM	> 300 µM
C#CCOc1ccc(/C=C/C(=O)Nc2ccccc2C(=O)NCCCN(C)C)cc1OC [Example 32, (E)-N-(3-(dimethylamino)propyl)-2-(3-(3-methoxy-4-(prop-2-yn-1-yloxy)phenyl)acrylamido) benzamide]	27.4 µM	32 µM
C#CCOc1ccc(/C=C/C(=O)Nc2ccccc2C(=O)NCCOC)cc1OC [Example 33, (E)-2-(3-(3-methoxy-4-(prop-2-yn-1-yloxy)phenyl)acrylamido)-N-(2-methoxyethyl)benzamide]	29.2 µM	199 µM
C#CCOc1ccc(/C=C/C(=O)Nc2ccccc2C(=O)NCCN2CCN(C)CC2)cc1OC [Example 34, (E)-2-(3-(3-methoxy-4-(prop-2-yn-1-yloxy)phenyl)acrylamido)-N-(2-(4-methylpiperazin-1-yl)ethyl)benzamide]	28.4 µM	37.3 µM
C#CCOc1ccc(/C=C/C(=O)Nc2ccccc2C(=O)NCCN2CCOCC2)cc1OC [Example 35, (E)-2-(3-(3-methoxy-4-(prop-2-yn-1-yloxy)phenyl)acrylamido)-N-(2-morpholinoethyl)benzamide]	37.4 µM	301 µM
C#CCOc1ccc(/C=C/C(=O)Nc2ccccc2C(=O)NC2COC2)cc1OC [Example 38, (E)-2-(3-(3-methoxy-4-(prop-2-yn-1-yloxy)phenyl)acrylamido)-N-(oxetan-3-yl)benzamide]	38.2 µM	236 µM
C#CCOc1ccc(/C=C/C(=O)Nc2ccccc2C(=O)NCC2CCOC2)cc1OC (centres unmarked) [Example 39, (E)-2-(3-(3-methoxy-4-(prop-2-yn-1-yloxy)phenyl)acrylamido)-N-((tetrahydrofuran-3-yl)methyl)benzamide]	48.3 µM	85.8 µM
C#CCOc1ccc(/C=C/C(=O)Nc2ccccc2C(=O)NCc2ccccn2)cc1OC [Example 41, (E)-2-(3-(3-methoxy-4-(prop-2-yn-1-yloxy)phenyl)acrylamido)-N-(pyridin-2-ylmethyl)benzamide]	24.8 µM	341 µM
C#CCOc1ccc(/C=C/C(=O)Nc2ccccc2C(=O)NCc2cccnc2)cc1OC [Example 43, (E)-2-(3-(3-methoxy-4-(prop-2-yn-1-yloxy)phenyl)acrylamido)-N-(pyridin-3-ylmethyl)benzamide]	44.6 µM	> 300 µM
C#CCOc1ccc(/C=C/C(=O)Nc2ccccc2C(=O)NCCc2ccncc2)cc1OC [Example 46, (E)-2-(3-(3-methoxy-4-(prop-2-yn-1-yloxy)phenyl)acrylamido)-N-(2-(pyridin-4-yl)ethyl)benzamide]	46.6 µM	186 µM
C#CCOc1ccc(/C=C/C(=O)Nc2ccccc2C(=O)Nc2cnn(C)c2)cc1OC [Example 47, (E)-2-(3-(3-methoxy-4-(prop-2-yn-1-yloxy)phenyl)acrylamido)-N-(1-methyl-1H-pyrazol-4-yl)benzamide]	29.1 µM	> 300 µM
C#CCOc1ccc(/C=C/C(=O)Nc2ccccc2C(=O)Nc2ccn(C)n2)cc1OC [Example 48, (E)-2-(3-(3-methoxy-4-(prop-2-yn-1-yloxy)phenyl)acrylamido)-N-(1-methyl-1H-pyrazol-3-yl)benzamide]	23.9 µM	309 µM
C#CCOc1ccc(/C=C/C(=O)Nc2ccccc2C(=O)NC2CCNCC2)cc1OC [Example 49, (E)-2-(3-(3-methoxy-4-(prop-2-yn-1-yloxy)phenyl)acrylamido)-N-(piperidin-4-yl)benzamide]	25.3 µM	30.6 µM
COc1cc(/C=C/C(=O)Nc2ccccc2C(=O)O)ccc1OCC1CCNCC1 [Example 50, (E)-2-(3-(3-methoxy-4-(piperidin-4-ylmethoxy)phenyl)acrylamido)benzoic acid]	47.4 µM	107 µM

Now those with a lower IC50 [1], led by results:

IC50 [1]	Compound	CC50 at 48 h [2]
11.8 µM	C#CCOc1ccc(/C=C/C(=O)Nc2ccccc2C(=O)NCCN(C)C)cc1OC [Example 30, (E)-N-(2-(dimethylamino)ethyl)-2-(3-(3-methoxy-4-(prop-2-yn 1 yloxy)phenyl)acrylamido) benzamide]	37.2 µM
13.9 µM	C#CCOc1ccc(/C=C/C(=O)Nc2ccccc2C(=O)Nc2nn[nH]n2)cc1OC [Example 31, (E)-2-(3-(3-methoxy-4-(prop-2-yn-1-yloxy)phenyl)acrylamido)-N-(2H-tetrazol-5-yl)benzamide]	> 300 µM
15.8 µM	C#CCOc1ccc(/C=C/C(=O)Nc2ccccc2C(=O)NC2CCN(C)CC2)cc1OC [Example 36, (E)-2-(3-(3-methoxy-4-(prop-2-yn-1-yloxy)phenyl)acrylamido)-N-(1-methylpiperidin-4-yl)benzamide]	15.2 µM
18 µM	C#CCOc1ccc(/C=C/C(=O)Nc2ccccc2C(=O)NCC2CCN(C)CC2)cc1OC [Example 37, (E)-2-(3-(3-methoxy-4-(prop-2-yn-1-yloxy)phenyl)acrylamido)-N-((1-methylpiperidin-4-yl)methyl)benzamide]	29.2 µM
6.76 µM	C#CCOc1ccc(/C=C/C(=O)Nc2ccccc2C(=O)NCc2cncn2C)cc1OC [Example 40, (E)-2-(3-(3-methoxy-4-(prop-2-yn-1-yloxy)phenyl)acrylamido)-N-((1-methyl-1H-imidazol-5-yl)methyl)benzamide]	> 300 µM
17 µM	C#CCOc1ccc(/C=C/C(=O)Nc2ccccc2C(=O)NCCc2ccccn2)cc1OC [Example 42, (E)-2-(3-(3-methoxy-4-(prop-2-yn-1-yloxy)phenyl)acrylamido)-N-(2-(pyridin-2-yl)ethyl)benzamide]	52 µM
13.2 µM	C#CCOc1ccc(/C=C/C(=O)Nc2ccccc2C(=O)Nc2ccncc2)cc1OC [Example 44, (E)-2-(3-(3-methoxy-4-(prop-2-yn-1-yloxy)phenyl)acrylamido)-N-(pyridin-4-yl)benzamide]	11.1 µM
12.9 µM	C#CCOc1ccc(/C=C/C(=O)Nc2ccccc2C(=O)NCc2ccncc2)cc1OC [Example 45, (E)-2-(3-(3-methoxy-4-(prop-2-yn-1-yloxy)phenyl)acrylamido)-N-(pyridin-4-ylmethyl)benzamide]	307 µM
15.5 µM	COc1cc(/C=C/C(=O)Nc2ccccc2C(=O)O)ccc1OC1CCN(C)C1 (centres unmarked) [Example 51, (E)-2-(3-(3-methoxy-4-((1-methylpyrrolidin-3-yl)oxy)phenyl)acrylamido)benzoic acid]	> 300 µM
11.3 µM	COc1cc(/C=C/C(=O)Nc2ccccc2C(=O)O)ccc1OCc1c(C)noc1C [Example 52, (E)-2-(3-(4-((3,5-dimethylisoxazol-4-yl)methoxy)-3-methoxyphenyl)acrylamido)benzoic acid]	140 µM
15 µM	COc1cc(/C=C/C(=O)Nc2ccccc2C(=O)O)ccc1OCc1cnn(C)c1 [Example 53, (E)-2-(3-(3-methoxy-4-((1-methyl-1H-pyrazol-4-yl)methoxy)phenyl)acrylamido)benzoic acid]	226 µM
